In brackets after ≈: the same amount, converted by molar mass.

What all share (assay): 50% growth suppression concentration (IC50) of tumor cells (MTT)
Holding throughout (assay type): cell-based

The subject of experiment [1] is 3LL mouse lung cancer cells. To be noted: 48 hours, read-out: IC50 (μg/ml) 3LL. An excerpt: (§1) 3LL mouse lung cancer cells, Colon 26 mouse colorectal cancer cells, PC3 human prostatic cancer cells, Du145 human prostatic cells, and LNCAP human prostatic cells were used and 50% suppression concentrations (IC50) of Invention Substance 1, genistein standard preparation (produced by Sigma) and basidiomycetes culture (product obtained by cultivating basidiomycetes in the absence of isoflavones-containing material under the same conditions as in Example 1) on these cells were examined.
(§2) That is, Invention Substance 1, genistein standard preparation or basidiomycetes culture was suspended in distilled water and were autoclaved and added to the cells in a continuously varied concentration of from 1,000 μg/ml to 0.1 μg/ml. The tumor cell suspension was adjusted to 1-2×10^5 cells/well with DMEM medium containing 10% FBS and cultivated at 37° C. for 48 hours. Then, after addition of Invention Substance 1 or genistein standard preparation, the cells were further cultivated for additional 48 hours, followed by examining cell growth by the MTT method using a microplate reader. Lower numerical values indicate that 50% suppression of the growth of cultured cancer cells is possible at lower concentrations.

Experiment [2] has as its system Colon 26 mouse colorectal cancer cells. To be noted: 48 hours, read-out: IC50 (μg/ml) Colon 26.
Text: as §1, §2

For experiment [3], the system named is Du145 human prostatic cells. The note with it: DU-145, 48 hours, read-out: IC50 (μg/ml) Du145.
Text: as §1, §2

For experiment [4], the system named is LNCAP human prostatic cells. To be noted: 48 hours, read-out: IC50 (μg/ml) LNCaP.
Text: as §1, §2

Experiment [5] has as its system PC3 human prostatic cancer cells. To be noted: 48 hours, read-out: IC50 (μg/ml) PC3.
Text: as §1, §2

With `O=c1c(-c2ccc(O)cc2)coc2cc(O)cc(O)c12` [Genistein standard preparation, genistein], the IC50 was 31.8 µg/mL (≈ 118 µM) in experiment [1]; 51.2 µg/mL (≈ 190 µM) in experiment [2]; 55.3 µg/mL (≈ 205 µM) in experiment [3]; 69.4 µg/mL (≈ 257 µM) in experiment [4]; 35.8 µg/mL (≈ 132 µM) in experiment [5].

The values above are taken from patent publication US7883708B2, “Substance derived from basidiomycetes culture, method for producing it and its use” (Amino Up Chemical Co., Ltd., priority 1999, dated 2011).
